Experimental data published in patent US12509482B2, “3′-ketoglycoside compound for the slow release of a volatile alcohol” (GLYCOSCIENCE, S.L., priority 2020, dated 2025).

Experiments:
Assay type in all cases: physicochemical
[1] = Example 19: release of cis-PMD from cis-PMD-O-β-D-3′-ketoglucopyranoside, 0.1 M deuterated phosphate buffer, 33% D6-DMSO, 32° C.
Protocol: In this example the rate of release of cis-PMD from (2R,3R,5S)-3,5-dihydroxy-2-(hydroxymethyl)-6-((5-(2-hydroxypropan-2-yl)-2-methylcyclohexyl)oxy)tetrahydro-4H-pyran-4-one (cis-PMD-O-β-D-3′-ketoglucopyranoside) in 0.1 M deuterated phosphate buffer solutions of differing pH containing 33% D6-DMSO was determined. 0.1 M of pH 5.8 and 7.4 stock buffered solutions of sodium dihydrogen phosphate and disodium hydrogen phosphate were prepared in deuterated water (D2O).
A stock solution of 10 mg of cis-PMD-O-β-D-3′ketoglucopyranoside in 0.5 mL of D6-DMSO were prepared.
(§1) To two parallel reaction vials, where indicated in the reaction table below, was added 0.20 mL of the glycoside substrate solutions in D6-DMSO and 0.50 mL of low or high pH 0.1M phosphate buffer in D2O and the mixtures incubated by shaking at 32° C. After times indicated in table below, the mixtures where analysed by ^1H-NMR in a 400 MHz instrument.

[2] = Example 26: release of geraniol from 2′,6′-diacetyl-geranyl-O-β-D-3′-ketoglucopyranoside, 0.1 M deuterated phosphate buffer, 50% D6-DMSO, 32° C.
Protocol: In this example the rate of release of geraniol from (((2R,3R,5S)-5-acetoxy-6-(((E)-3,7-dimethylocta-2,6-dien-1-yl)oxy)-3-hydroxy-4-oxotetrahydro-2H-pyran-2-yl)methyl acetate (2′,6′-Diacetyl-geranyl-O-β-D-3′-ketoglucopyranoside) in 0.1 M deuterated phosphate buffer solutions of differing pH containing 50% D6-DMSO was determined.
(§2) 0.1 M of pH 5.8 and 7.4 stock buffered solutions of sodium dihydrogen phosphate and disodium hydrogen phosphate were prepared in deuterated water (D2O).
A stock solution of 15 mg of 2′,6′-diacetyl-geranyl-O-β-D-3′-ketoglucopyranoside in 1.5 mL of D6-DMSO were prepared.
as §1, with “0.35” for “0.20”, “0.35” for “0.50”

[3] = Example 27: release of phenol from 2′,6′-diacetyl-phenyl-O-β-D-3′-ketoglucopyranoside, 0.1 M deuterated phosphate buffer or D2O, 33% D6-DMSO, 32° C.
Protocol: as §2
A stock solution of 25 mg of 2′,6′-diacetyl-phenyl-O-β-D-3′-ketoglucopyranoside in 1.0 mL of D6-DMSO were prepared.
as §1, with “three” for “two”, “0.40” for “0.50”

[4] = Example 14: release of eugenol from eugenyl-O-β-D-3′-ketoglucopyranoside, 0.1 M deuterated phosphate buffer or D2O, 33% D6-DMSO, 32° C.
Protocol: In this example the rate of release of eugenol from (2S,3S,5R,6R)-2-(4-allyl-2-methoxyphenoxy)-3,5-dihydroxy-6-(hydroxymethyl)tetrahydro-4H-pyran-4-one (eugenyl-O-β-D-3′-ketoglucopyranoside) in 0.1 M deuterated phosphate buffer solutions of differing pH containing 33% D6-DMSO was determined.
as §2
A stock solution of 15 mg of eugenyl-O-β-D-3′-ketoglucopyranoside in 1.0 mL of D6-DMSO were prepared.
as §1, with “To three parallel reaction” for “To two parallel reaction”, “D6-DMSO and 0.40 mL of” for “D6-DMSO and 0.50 mL of”, “buffer in D2O or D2O and” for “buffer in D2O and”

[5] = Example 18: release of picaridin from 250 μM picaridin-O-β-D-3′-ketoglucopyranoside in different pH aqueous buffers, 32° C., UPLC
Protocol: In this example the rate of release of picaridin from a solution of sec-butyl 2-(2-(((2R,3S,5R,6R)-3,5-dihydroxy-6-(hydroxymethyl)-4-oxotetrahydro-2H-pyran-2-yl)oxy)ethyl)piperidine-1-carboxylate (picaridin-O-β-D-3′-ketoglucopyranoside) different pH aqueous buffers was determined.
Parallel mixtures containing 250 μM picaridin-O-β-D-3′-ketoglucopyranoside in 0.05M K2HPO4 0.95M/KH2PO4, pH=8.5 buffer (Reaction 1), 0.17M Na2HPO4/0.02M citric acid, pH=7 buffer (Reaction 2), 0.12M Na2HPO4/0.04M citric acid buffer, pH=5.8 (Reaction 3) and 0.04M sodium citrate/0.06M citric acid buffer, pH=4 (Reaction 4) were incubated at 32° C. Aliquots of 10 μl were periodically taken, diluted with MeCN (90 μl) and analysed by UPLC using the following instrument and conditions: • Stationary phase: Acquity UPLC® BEH C18 1.7 μm (2.1 mm×50 mm) (Waters) • Mobile phase: A: water+0.1% formic acid; B: acetonitrile+0.1% formic acid • The chromatographic equipment employed was an UPLC QSM Waters Acquity. • Gradient conditions:
• Flow Rate(mL/min) 0.6 • Source Temperature (° C.) 150 • Desolvation Temperature (° C.) 500 • Cone Gas Flow (L/Hr) 50 • Desolvation Gas Flow (L/Hr) 900 • Target Column Temperature 35° C.
Target Sample Temperature 8.0° C.

Structure (SMILES): C[C@@H]1CC[C@@H](C(C)(C)O)C(O[C@@H]2O[C@H](CO)[C@@H](O)C(=O)[C@H]2O)C1 (mixture of isomers) [cis-PMD-O-β-D-3′-ketoglucopyranoside, (2R,3R,5S,6R)-3,5-dihydroxy-2-(hydroxymethyl)-6-(((1S,2R,5R)-2-(2-hydroxypropan-2-yl)-5-methylcyclohexyl)-oxy)tetrahydro-4H-pyran-4-one]
- pH dependence of cis-PMD release (in words) ([1]; 32° C.): only slowly degraded at pH 5.8, but releases cis-PMD at a significantly higher rate at pH 7.4
- % Conversion by 1H-NMR ([1]; pH 5.8, 0 h): 0%
- % Conversion by 1H-NMR ([1]; pH 5.8, 3 h): 0%
- % Conversion by 1H-NMR ([1]; pH 5.8, 20 h): 0%
- % Conversion by 1H-NMR ([1]; pH 5.8, 95 h): <5%
- % Conversion by 1H-NMR ([1]; pH 7.4, 0 h): 0%
- % Conversion by 1H-NMR ([1]; pH 7.4, 3 h): 12%
- % Conversion by 1H-NMR ([1]; pH 7.4, 20 h): 39%
- % Conversion by 1H-NMR ([1]; pH 7.4, 95 h): 45%
- % Conversion by 1H-NMR ([1]; pH 7.4, 167 h): 85%

Structure (SMILES): CC(=O)OC[C@H]1O[C@@H](OC/C=C(\C)CCC=C(C)C)[C@H](OC(C)=O)C(=O)[C@@H]1O [((2R,3R,5S,6R)-5-acetoxy-6-(((E)-3,7-dimethylocta-2,6-dien-1-yl)oxy)-3-hydroxy-4-oxotetrahydro-2H-pyran-2-yl)methyl acetate]
- geraniol release (in words) ([2]; 32° C.): generates geraniol at both pH 5.8 and pH 7.4
- % Conversion by 1H-NMR ([2]; pH 5.8, 0 h): 0%
- % Conversion by 1H-NMR ([2]; pH 5.8, 5 h): 10%
- % Conversion by 1H-NMR ([2]; pH 5.8, 24 h): 20%
- % Conversion by 1H-NMR ([2]; pH 5.8, 48 h): 39%
- % Conversion by 1H-NMR ([2]; pH 5.8, 120 h): 43%
- % Conversion by 1H-NMR ([2]; pH 5.8, 480 h): 92%
- % Conversion by 1H-NMR ([2]; pH 5.8, column head 19 (between 120 h and 480 h)): 62%
- % Conversion by 1H-NMR ([2]; pH 7.4, 0 h): 0%
- % Conversion by 1H-NMR ([2]; pH 7.4, 5 h): 6%
- % Conversion by 1H-NMR ([2]; pH 7.4, 24 h): 25%
- % Conversion by 1H-NMR ([2]; pH 7.4, 48 h): 33%
- % Conversion by 1H-NMR ([2]; pH 7.4, 120 h): 37%
- % Conversion by 1H-NMR ([2]; pH 7.4, 480 h): 85%
- % Conversion by 1H-NMR ([2]; pH 7.4, column head 19 (between 120 h and 480 h)): 55%

Structure (SMILES): CC(=O)OC[C@H]1O[C@@H](Oc2ccccc2)[C@H](OC(C)=O)C(=O)[C@@H]1O [((2R,3R,5S,6S)-5-acetoxy-3-hydroxy-4-oxo-6-phenoxytetrahydro-2H-pyran-2-yl)methyl acetate]
- phenol release (in words) ([3]; 32° C.): generates phenol at both pH 5.8 and pH 7.4 and in D2O
- % Conversion by 1H-NMR ([3]; D2O, 0 h): 0%
- % Conversion by 1H-NMR ([3]; D2O, 4 h): 0%
- % Conversion by 1H-NMR ([3]; D2O, 22 h): 10%
- % Conversion by 1H-NMR ([3]; D2O, 70 h (printed under the 52 h column)): 21%
- % Conversion by 1H-NMR ([3]; pH 5.8, 0 h): 14%
- % Conversion by 1H-NMR ([3]; pH 5.8, 4 h): 18%
- % Conversion by 1H-NMR ([3]; pH 5.8, 22 h): 24%
- % Conversion by 1H-NMR ([3]; pH 5.8, 52 h): 26%
- % Conversion by 1H-NMR ([3]; pH 5.8, 120 h): 36%
- % Conversion by 1H-NMR ([3]; pH 5.8, 432 h): 54%
- % Conversion by 1H-NMR ([3]; pH 7.4, 0 h): 19%
- % Conversion by 1H-NMR ([3]; pH 7.4, 4 h): 43%
- % Conversion by 1H-NMR ([3]; pH 7.4, 22 h): 74%
- % Conversion by 1H-NMR ([3]; pH 7.4, 52 h): 81%
- % Conversion by 1H-NMR ([3]; pH 7.4, 120 h): 93%
- % Conversion by 1H-NMR ([3]; pH 7.4, 432 h): 100%

Structure (SMILES): C=CCc1ccc(O[C@@H]2O[C@H](CO)[C@@H](O)C(=O)[C@H]2O)c(OC)c1 [eugenyl-O-β-D-3′-ketoglucopyranoside, (2S,3S,5R,6R)-2-(4-allyl-2-methoxyphenoxy)-3,5-dihydroxy-6-(hydroxymethyl)tetrahydro-4H-pyran-4-one]
- pH dependence of eugenol release (in words) ([4]; 32° C.): only slowly degraded at pH 5.8, but releases eugenol at a significantly higher rate at pH 7.4
- % Conversion by 1H-NMR ([4]; D2O, 1 h): 3%
- % Conversion by 1H-NMR ([4]; D2O, 5 h): 3%
- % Conversion by 1H-NMR ([4]; D2O, 23 h): 5%
- % Conversion by 1H-NMR ([4]; D2O, 69 h): 10%
- % Conversion by 1H-NMR ([4]; pH 5.8, 1 h): 3%
- % Conversion by 1H-NMR ([4]; pH 5.8, 5 h): 3%
- % Conversion by 1H-NMR ([4]; pH 5.8, 23 h): 5%
- % Conversion by 1H-NMR ([4]; pH 5.8, 69 h): 5%
- % Conversion by 1H-NMR ([4]; pH 7.4, 1 h): 3%
- % Conversion by 1H-NMR ([4]; pH 7.4, 5 h): 8%
- % Conversion by 1H-NMR ([4]; pH 7.4, 23 h): 60%
- % Conversion by 1H-NMR ([4]; pH 7.4, 69 h): 80%

Structure (SMILES): CCC(C)OC(=O)N1CCCCC1CCO[C@@H]1O[C@H](CO)[C@@H](O)C(=O)[C@H]1O (stereo partly drawn) [picaridin-O-β-D-3′-ketoglucopyranoside, sec-butyl 2-(2-(((2R,3S,5R,6R)-3,5-dihydroxy-6-(hydroxymethyl)-4-oxotetrahydro-2H-pyran-2-yl)oxy)ethyl) piperidine-1-carboxylate]
- pH dependence of degradation (in words) ([5]; 32° C.): degraded at increasing rate between pH 4 and pH 8.5
- Picaridin released ([5]; Reaction 1, pH=8.5 buffer, 0 h): 1 µM
- Picaridin released ([5]; Reaction 1, pH=8.5 buffer, 7 h): 2 µM
- Picaridin released ([5]; Reaction 1, pH=8.5 buffer, 24 h): 7 µM
- Picaridin released ([5]; Reaction 1, pH=8.5 buffer, 50 h): 15 µM
- Picaridin released ([5]; Reaction 2, pH=7 buffer, 0 h): 1 µM
- Picaridin released ([5]; Reaction 2, pH=7 buffer, 7 h): 1 µM
- Picaridin released ([5]; Reaction 2, pH=7 buffer, 24 h): 2 µM
- Picaridin released ([5]; Reaction 2, pH=7 buffer, 50 h): 4 µM
- Picaridin released ([5]; Reaction 3, pH=5.8 buffer, 0 h): 0.25 µM
- Picaridin released ([5]; Reaction 3, pH=5.8 buffer, 7 h): 0.75 µM
- Picaridin released ([5]; Reaction 3, pH=5.8 buffer, 24 h): 1 µM
- Picaridin released ([5]; Reaction 3, pH=5.8 buffer, 50 h): 2 µM
- Picaridin released ([5]; Reaction 4, pH=4 buffer, 0 h): 0.25 µM
- Picaridin released ([5]; Reaction 4, pH=4 buffer, 7 h): 0.75 µM
- Picaridin released ([5]; Reaction 4, pH=4 buffer, 24 h): 1 µM
- Picaridin released ([5]; Reaction 4, pH=4 buffer, 50 h): 1.75 µM
